Data reported in US8697683B2, “Azetidinyl diamides as monoacylglycerol lipase inhibitors” (Janssen Pharmaceutica, NV, priority 2009, dated 2014).

target: T1, MGL (Rattus norvegicus, UniProt Q8R431); experiment: 2-AG Accumulation Assay (rat brain homogenate); type: biochemical; conditions: compound 1 μM, percent of vehicle 2-AG accumulation
T1 construct: one g rat brain was homogenized
T1 sequence (Q8R431 1-303): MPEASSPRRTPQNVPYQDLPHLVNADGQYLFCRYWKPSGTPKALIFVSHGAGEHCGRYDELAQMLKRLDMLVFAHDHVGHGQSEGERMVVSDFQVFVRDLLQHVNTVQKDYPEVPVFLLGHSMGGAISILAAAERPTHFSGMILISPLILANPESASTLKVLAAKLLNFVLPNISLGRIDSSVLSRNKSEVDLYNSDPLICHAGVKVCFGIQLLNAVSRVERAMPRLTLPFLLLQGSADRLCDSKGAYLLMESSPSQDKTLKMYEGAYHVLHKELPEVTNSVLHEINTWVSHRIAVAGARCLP

Going from `O=C(c1ccc(-c2cccc(C(F)(F)F)c2)cc1)N1CC(N2CCN(C(=O)c3nccs3)CC2)C1` [Cpd 237, 1-(1,3-Thiazol-2-ylcarbonyl)-4-(1-{[3′-(trifluoromethyl)biphenyl-4-yl]carbonyl}azetidin-3-yl)piperazine] to `Cc1cc(-c2cccc(C(F)(F)F)c2)ccc1C(=O)N1CC(N2CCN(C(=O)c3nccs3)CC2)C1` [Cpd 239, 1-(1-{[3-Methyl-3′-(trifluoromethyl)biphenyl-4-yl]carbonyl}azetidin-3-yl)-4-(1,3-thiazol-2-ylcarbonyl)piperazine], the “Rat Brain 2AG % VehCntrl (%) @1 μM” value rises from 1044% to 1097%.

First: O=C(c1nccs1)N1CCN(C2CN(C(=O)c3ccc(-c4cccc(C(F)(F)F)c4)cc3Cl)C2)CC1 [Cpd 250, 1-(1-{[3-Chloro-3′-(trifluoromethyl)biphenyl-4-yl]carbonyl}azetidin-3-yl)-4-(1,3-thiazol-2-ylcarbonyl)piperazine]
Second: O=C(c1nccs1)N1CCN(C2CN(C(=O)c3sc4cc(C(F)(F)F)ccc4c3Cl)C2)CC1 [Cpd 324, 1-(1-{[3-Chloro-6-(trifluoromethyl)-1-benzothiophen-2-yl]carbonyl}azetidin-3-yl)-4-(1,3-thiazol-2-ylcarbonyl)piperazine]
The “Rat Brain 2AG % VehCntrl (%) @1 μM” value of the first is lower: 1011% for the first, 1215% for the second.

First: O=C(c1nccs1)N1CCN(C2CN(C(=O)c3sc4cc(Br)ccc4c3Cl)C2)CC1 [Cpd 326, 1-{1-[(6-Bromo-3-chloro-1-benzothiophen-2-yl)carbonyl]azetidin-3-yl}-4-(1,3-thiazol-2-ylcarbonyl)piperazine]
Second: O=C(c1nccs1)N1CCN(C2CN(C(=O)c3sc4cc(-c5ccccc5)ccc4c3Cl)C2)CC1 [Cpd 343, 1-{1-[(3-Chloro-6-phenyl-1-benzothiophen-2-yl)carbonyl]azetidin-3-yl}-4-(1,3-thiazol-2-ylcarbonyl)piperazine]
The “Rat Brain 2AG % VehCntrl (%) @1 μM” value of the first is lower: 1336% for the first, 1371% for the second.

Compared with `O=C(c1ccc2c(-c3ccccc3)cccc2c1)N1CC(N2CCN(C(=O)c3nccs3)CC2)C1` [Cpd 338, 1-{1-[(5-Phenylnaphthalen-2-yl)carbonyl]azetidin-3-yl}-4-(1,3-thiazol-2-ylcarbonyl)piperazine], `O=C(c1ccc2c(c1)CCCN2Cc1ccc(C(F)(F)F)cc1)N1CC(N2CCN(C(=O)c3nccs3)CC2)C1` [Cpd 371, 6-({3-[4-(1,3-Thiazol-2-ylcarbonyl)piperazin-1-yl]azetidin-1-yl}carbonyl)-1-(4-trifluoromethylbenzyl)-1,2,3,4-tetrahydroquinoline] is lower in “Rat Brain 2AG % VehCntrl (%) @1 μM” value: 2111% for the first, 1138% for the second.

same assay, conditions: compound 10 μM, percent of vehicle 2-AG accumulation

Going from `O=C(c1ccc(-c2ccccc2)cc1)N1CC(N2CCN(C(=O)c3nccs3)CC2)C1` [Cpd 9, 1-[1-(Biphenyl-4-ylcarbonyl)azetidin-3-yl]-4-(1,3-thiazol-2-ylcarbonyl)piperazine] to `O=C(c1ccc(-c2cccc(Cl)c2)cc1)N1CC(N2CCN(C(=O)c3nccs3)CC2)C1` [Cpd 162, 1-{1-[(3′-Chlorobiphenyl-4-yl)carbonyl]azetidin-3-yl}-4-(1,3-thiazol-2-ylcarbonyl)piperazine], the “Rat Brain 2AG % VehCntrl (%) @10 μM” value rises from 1026% to 1099%.

Compared with `O=C(c1ccccc1)N1CCN(C2CN(C(=O)c3ccc4nc(-c5cccc(C(F)(F)F)c5)oc4c3)C2)CC1` [Cpd 131, 6-({3-[4-(Phenylcarbonyl)piperazin-1-yl]azetidin-1-yl}carbonyl)-2-[3-(trifluoromethyl)phenyl]-1,3-benzoxazole], `O=C(c1ccc(-c2cccc(C(F)(F)F)c2)cc1)N1CC(N2CCN(C(=O)c3cscn3)CC2)C1` [Cpd 229, 1-(1,3-Thiazol-4-ylcarbonyl)-4-(1-{[3′-(trifluoromethyl)biphenyl-4-yl]carbonyl}azetidin-3-yl)piperazine] is lower in “Rat Brain 2AG % VehCntrl (%) @10 μM” value: 1406% for the first, 1304% for the second.

First: O=C(c1ccc(-c2ccc(C(F)(F)F)cc2)cc1)N1CC(N2CCN(C(=O)c3nccs3)CC2)C1 [Cpd 150, 1-(1,3-Thiazol-2-ylcarbonyl)-4-(1-{[4′-(trifluoromethyl)biphenyl-4-yl]carbonyl}azetidin-3-yl)piperazine]
Second: O=C(c1ccc(-c2cccc(C(F)(F)F)c2)cc1)N1CC(N2CCN(C(=O)c3nccs3)CC2)C1 [Cpd 237, 1-(1,3-Thiazol-2-ylcarbonyl)-4-(1-{[3′-(trifluoromethyl)biphenyl-4-yl]carbonyl}azetidin-3-yl)piperazine]
The “Rat Brain 2AG % VehCntrl (%) @10 μM” value of the first is lower: 1104% for the first, 1182% for the second.

First: N#Cc1cccc(-c2ccc(C(=O)N3CC(N4CCN(C(=O)c5nccs5)CC4)C3)cc2)c1 [Cpd 161, 4′-({3-[4-(1,3-Thiazol-2-ylcarbonyl)piperazin-1-yl]azetidin-1-yl}carbonyl)biphenyl-3-carbonitrile]
Second: Cc1cccc(-c2ccc(C(=O)N3CC(N4CCN(C(=O)c5nccs5)CC4)C3)cc2)c1 [Cpd 176, 1-{1-[(3′-Methylbiphenyl-4-yl)carbonyl]azetidin-3-yl}-4-(1,3-thiazol-2-ylcarbonyl)piperazine]
The “Rat Brain 2AG % VehCntrl (%) @10 μM” value of the first is higher: 1280% for the first, 1124% for the second.

Going from `O=C(c1ccc(-c2ccc(F)cc2)cc1)N1CC(N2CCN(C(=O)c3nccs3)CC2)C1` [Cpd 174, 1-{1-[(4′-Fluorobiphenyl-4-yl)carbonyl]azetidin-3-yl}-4-(1,3-thiazol-2-ylcarbonyl)piperazine] to `CC(=O)c1ccc(-c2ccc(C(=O)N3CC(N4CCN(C(=O)c5nccs5)CC4)C3)cc2)cc1` [Cpd 209, 1-[4′-({3-[4-(1,3-Thiazol-2-ylcarbonyl)piperazin-1-yl]azetidin-1-yl}carbonyl)biphenyl-4-yl]ethanone], the “Rat Brain 2AG % VehCntrl (%) @10 μM” value rises from 1258% to 1681%.

First: O=C(c1ccc(-c2ccc(Cl)c(Cl)c2)cc1)N1CC(N2CCN(C(=O)c3nccs3)CC2)C1 [Cpd 175, 1-{1-[(3′,4′-Dichlorobiphenyl-4-yl)carbonyl]azetidin-3-yl}-4-(1,3-thiazol-2-ylcarbonyl)piperazine]
Second: O=C(c1ccc(-c2ccc(F)c(Cl)c2)cc1)N1CC(N2CCN(C(=O)c3nccs3)CC2)C1 [Cpd 178, 1-{1-[(3′-Chloro-4′-fluorobiphenyl-4-yl)carbonyl]azetidin-3-yl}-4-(1,3-thiazol-2-ylcarbonyl)piperazine]
The “Rat Brain 2AG % VehCntrl (%) @10 μM” value of the first is lower: 1180% for the first, 1192% for the second.

First: O=C(c1ccc(-c2ccc3c(c2)OCO3)cc1)N1CC(N2CCN(C(=O)c3nccs3)CC2)C1 [Cpd 181, 1-(1-{[4-(1,3-Benzodioxol-5-yl)phenyl]carbonyl}azetidin-3-yl)-4-(1,3-thiazol-2-ylcarbonyl)piperazine]
Second: O=C(c1ccc(-c2cccc([N+](=O)[O-])c2)cc1)N1CC(N2CCN(C(=O)c3nccs3)CC2)C1 [Cpd 183, 1-{1-[(3′-Nitrobiphenyl-4-yl)carbonyl]azetidin-3-yl}-4-(1,3-thiazol-2-ylcarbonyl)piperazine]
The “Rat Brain 2AG % VehCntrl (%) @10 μM” value of the first is higher: 1236% for the first, 1090% for the second.

Compared with `O=C(c1ccc(-c2ccc3ccccc3c2)cc1)N1CC(N2CCN(C(=O)c3nccs3)CC2)C1` [Cpd 182, 1-{1-[(4-Naphthalen-2-ylphenyl)carbonyl]azetidin-3-yl}-4-(1,3-thiazol-2-ylcarbonyl)piperazine], `O=C(c1ccc(-c2ccc([N+](=O)[O-])cc2)cc1)N1CC(N2CCN(C(=O)c3nccs3)CC2)C1` [Cpd 215, 1-{1-[(4′-Nitrobiphenyl-4-yl)carbonyl]azetidin-3-yl}-4-(1,3-thiazol-2-ylcarbonyl)piperazine] is lower in “Rat Brain 2AG % VehCntrl (%) @10 μM” value: 1500% for the first, 1091% for the second.

Compared with `CN(C)S(=O)(=O)Nc1cccc(-c2ccc(C(=O)N3CC(N4CCN(C(=O)c5ccccc5)CC4)C3)cc2)c1` [Cpd 205, N,N-Dimethyl-N′-[4′-({3-[4-(phenylcarbonyl)piperazin-1-yl]azetidin-1-yl}carbonyl)biphenyl-3-yl]sulfamide], `N#CC=Cc1cccc(-c2ccc(C(=O)N3CC(N4CCN(C(=O)c5nccs5)CC4)C3)cc2)c1` [Cpd 223, 3-[4′-({3-[4-(1,3-Thiazol-2-ylcarbonyl)piperazin-1-yl]azetidin-1-yl}carbonyl)biphenyl-3-yl]prop-2-enenitrile] is higher in “Rat Brain 2AG % VehCntrl (%) @10 μM” value: 1172% for the first, 1261% for the second.

First: Cc1cc(-c2cccc(C(F)(F)F)c2)ccc1C(=O)N1CC(N2CCN(C(=O)c3nccs3)CC2)C1 [Cpd 239, 1-(1-{[3-Methyl-3′-(trifluoromethyl)biphenyl-4-yl]carbonyl}azetidin-3-yl)-4-(1,3-thiazol-2-ylcarbonyl)piperazine]
Second: O=C(c1nccs1)N1CCN(C2CN(C(=O)c3ccc(-c4cccc(C(F)(F)F)c4)cc3Cl)C2)CC1 [Cpd 250, 1-(1-{[3-Chloro-3′-(trifluoromethyl)biphenyl-4-yl]carbonyl}azetidin-3-yl)-4-(1,3-thiazol-2-ylcarbonyl)piperazine]
The “Rat Brain 2AG % VehCntrl (%) @10 μM” value of the first is higher: 1353% for the first, 1327% for the second.

First: CC1(C)CCC(C)(C)c2cc(CCC(=O)N3CC(N4CCN(C(=O)c5nccs5)CC4)C3)ccc21 [Cpd 282, 1-{1-[3-(5,5,8,8-Tetramethyl-5,6,7,8-tetrahydronaphthalen-2-yl)propanoyl]azetidin-3-yl}-4-(1,3-thiazol-2-ylcarbonyl)piperazine]
Second: CN(CC1CCCCC1)c1ccc(CCC(=O)N2CC(N3CCN(C(=O)c4nccs4)CC3)C2)cc1 [Cpd 291, N-(Cyclohexylmethyl)-N-methyl-4-(3-oxo-3-{3-[4-(1,3-thiazol-2-ylcarbonyl)piperazin-1-yl]azetidin-1-yl}propyl)aniline]
The “Rat Brain 2AG % VehCntrl (%) @10 μM” value of the first is higher: 1775% for the first, 1019% for the second.

Going from `O=C(c1nccs1)N1CCN(C2CN(C(=O)c3sc4cc(C(F)(F)F)ccc4c3Cl)C2)CC1` [Cpd 324, 1-(1-{[3-Chloro-6-(trifluoromethyl)-1-benzothiophen-2-yl]carbonyl}azetidin-3-yl)-4-(1,3-thiazol-2-ylcarbonyl)piperazine] to `O=C(c1cc2c(C(F)(F)F)cccc2s1)N1CC(N2CCN(C(=O)c3nccs3)CC2)C1` [Cpd 327, 1-(1,3-Thiazol-2-ylcarbonyl)-4-(1-{[4-(trifluoromethyl)-1-benzothiophen-2-yl]carbonyl}azetidin-3-yl)piperazine], the “Rat Brain 2AG % VehCntrl (%) @10 μM” value rises from 1265% to 2005%.

Going from `O=C(c1ccc(OCc2ccc(Cl)c(Cl)c2)c(F)c1)N1CC(N2CCN(C(=O)c3nccs3)CC2)C1` [Cpd 400, 1-[1-({4-[(3,4-Dichlorobenzyl)oxy]-3 fluorophenyl}carbonyl)azetidin-3-yl]-4-(1,3-thiazol-2-ylcarbonyl)piperazine] to `O=C(c1ccc(OCc2cccc(Cl)c2Cl)c(F)c1)N1CC(N2CCN(C(=O)c3nccs3)CC2)C1` [Cpd 405, 1-[1-({4-[(2,3-Dichlorobenzyl)oxy]-3-fluorophenyl}carbonyl)azetidin-3-yl]-4-(1,3-thiazol-2-ylcarbonyl)piperazine], the “Rat Brain 2AG % VehCntrl (%) @10 μM” value rises from 1076% to 1591%.

`O=C(c1ccc(SCc2cccc(Cl)c2)cc1)N1CC(N2CCN(C(=O)c3nccs3)CC2)C1` [Cpd 412, 1-[1-({4-[(3-Chlorobenzyl)sulfanyl]phenyl}carbonyl)azetidin-3-yl]-4-(1,3-thiazol-2-ylcarbonyl)piperazine] was tested, and the “Rat Brain 2AG % VehCntrl (%) @10 μM” value was 1271%.
